Test [1] has as its system T cells (human PBMCs co-cultured with SMARCA4 deleted NCI-H1299 cells). The test is described as follows: Flow cytometry of T cell activation markers in co-culture of NCI-H1299 cells and human PBMCs. It is filed as cell-based. The note with it: Formula (I) combined with Pembrolizumab, FIG. 1A. The text has this:
Human peripheral blood mononuclear cells (PBMCs) were co-cultured with NCI-H1299 cells (SMARCA4 deleted NSCLC) with Pembrolizumab and/or Formula (I). The cell samples from co-culture were stained for CD3 (T cell marker), CD8 (T cell marker), and CD25 (T cell activation marker) and analyzed by flow cytometry to determine percentages of cells with marker positive populations.
(§1) H1299 (CRL-5803) and H1975 (CRL-5908) were purchased from the American […]. Human Mononuclear Cells (PBMC) (HUMANPBMC-0001989) were purchased from BioIVT. NCI-H1299, NCI-H1975 and all CT26 cells were cultured in RPMI-1640 (ATCC, 30-2001) supplemented with 10% FBS (Gibco, 26140-079) and 1× penicillin-streptomycin (Thermofisher, 15140122). Human Peripheral Bloogd Mononuclear Cells (PBMCs) were cultured in RPMI-1640, 20% FBS, 100U/ml Human Recombinant IL-2 (Gibco, PHC0027) and 1× penicillin-streptomycin. All cells were maintained at 37° C. in 5% CO2 in a humidified incubator.
Samples from co-culture were collected in Eppendorf tubes and 500 ul of PBS was added. The samples were centrifuged (300 g, 5 minutes) to wash. Supernatant was removed and the pellet was resuspended in 200 ul FACS buffer. Samples were placed on ice for 15 minutes to block. After blocking, the samples were centrifuged (300 g, 5 minutes). […]
(In general: Flow cytometry measures light scatter and fluorescence of single cells or particles in a stream.)

Test [2] relates to IFN-gamma, IL-2 and Granzyme B in co-culture of NCI-H1299 cells and human PBMCs. The test is described as follows: Cytokine analysis (MSD U-PLEX) of co-culture supernatant. It is filed as cell-based. Conditions: Formula (I) combined with Pembrolizumab; conditioned media; FIG. 1B. Here is the method: Supernatant from the co-culture were plated into a 96-well plate and cytokines were analyzed using the MSD U-PLEX Immuno-Oncology Group 1 (Human) kit (MesoScale Discovery, Custom-made kit). Expressions of IFN-gamma, IL-2 and Granzyme B are shown.
as §1
Supernatant from the co-culture were plated into a 96-well plate and cytokines were analyzed using the MSD U-PLEX Immuno-Oncology Group 1 (Human) kit (MesoScale Discovery, Custom-made kit).

Test [3] has as its system SMARCA4 deleted A549 cells. The test is described as follows: Incucyte 3D tumor spheroid growth, A549 cells with HLA-matched T cells. It is filed as cell-based, human. The protocol:
Green fluorescence protein (GFP) positive A549 cells were cultured with or without HLA-matched T cells and treated with Formula (I) in the spheroid culture system. Representative figures of the 3D cancer cell spheroids were shown.
The data were generated with SMARCA4 deleted A549 cells.
(§2) GFP-tagged tumor cells were seeded in 96 well Ultra-Low Adherence (ULA) plates (Corning, 7007) (2000 cells/well) and centrifuged briefly (300 g, 30 seconds) to induce cell aggregation. The cells were incubated at 37° C. overnight to allow complete aggregation into spheroids. Following the addition of immune cells with treatment of Pembrolizumab (MedChemExpress, HY-P9902) (100 ug/ml) and/or Formula (I) (100 nM). Three-dimensional tumor spheroid growth was monitored using Sartorius' Incucyte® SX1 Live-Cell Analysis.

Test [4] relates to SMARCA4 deleted NCI-H1299 cells. The test is described as follows: Incucyte 3D tumor spheroid growth, NCI-H1299 cells with human PBMCs. The note with it: Formula (I) 100 nM with pembrolizumab 100 ug/ml; FIG. 2C. It is filed as cell-based. Here is the method: (§3) The cells were treated with or without Formula (I) and/or pembrolizumab. The data were generated with SMARCA4 deleted NCI-H1299 and SMARCA4 WT NCI-H1975 cells.
as §2
(§4) H1299 and H1975 cells were seeded (500,000 cells/well) in 6 well Tissue Culture Treated plates (Corning 3516) and allowed to aggregate into tumor spheroids for 1-2 hours. Tumor spheroids were treated with 600 ul of Incucyte® Cytolight Lentivirus (Sartorius, 4481) for a MOI of 3 and 8 ug/ml Polybrene Transfection Reagent (Sigma-Aldrich, TR-1003). The cells were incubated at 37° C. overnight. Following incubation, media was removed and replaced with fresh media. GFP expression was monitored using Sartorius' Incucyte® SX1 Live-Cell Analysis System (9600-0031).

Test [5] deals with SMARCA4 WT NCI-H1975 cells. The test is described as follows: Incucyte 3D tumor spheroid growth, NCI-H1975 cells with human PBMCs. It is filed as cell-based. Conditions: Formula (I) 100 nM with pembrolizumab 100 ug/ml; FIG. 2C. The protocol: as §3, §2, §4

Each structure is given as a SMILES string. “Also recorded” adds a separate entry of the source.

For `Cc1ncsc1-c1ccc([C@H](C)NC(=O)[C@@H]2C[C@@H](O)CN2C(=O)[C@@H](c2cc(O[C@@H](C)CN3CC[C@@H](N4CCN5c6cc(-c7ccccc7O)nnc6NC[C@H]5C4)C3)no2)C(C)C)cc1` [Formula (I)], in test [1], the “activated (CD25+) CD3+ T cells” value is reported as “increased” and the “activated (CD25+) CD8+ T cells” value is on record as “increased”. For the same compound, in test [2], the “Gramzyme B level in co-culture supernatant” value is recorded as “higher levels”, the “IFN-g level in co-culture supernatant” value is “higher levels” and the “IL-2 level in co-culture supernatant” value is listed as “higher levels”. Moreover, the “T-cell mediated A549 killing” value in test [3] (Formula (I) 100 nM in the presence of T cells, quantitated GFP positive cells, FIG. 2A/2B) is given as “significantly increased; also recorded: promoted”. Besides, the “growth of A549 cancer cells (GFP positive) in 3D spheroid culture” value in test [3] (Formula (I) 100 nM with HLA-matched T cells, FIG. 2A) was “inhibited growth”. Moreover, the “combination effect on NCI-H1299 spheroids cultured with PBMCs, compared to single agent treated groups” value in test [4] was “showed more”. Further, in test [5], the “combination effect on NCI-H1975 spheroids cultured with PBMCs” value was “the combination effect was not seen”.

For the origin of these results see patent US20250114354A1, “COMBINATION TREATMENT REGIMENS - SMARCA2 DEGRADER WITH PD-1 INHIBITORS” (PRELUDE THERAPEUTICS INCORPORATED, priority 2023, published 2025).
